Results from patent US20120184542A1, “PYRIDO PYRIMIDINES” (priority 2011, published 2012).
Structures can show the parent of a compound that is named as a salt.

Tests used:
[1] = tested on: SW620 human colon cancer cells; assay: SW620 Cell Viability Assay; format: cell-based; conditions: Homo sapiens, SW-620, 96 h, CellTiter-Glo; 4 days incubation; read-out: Cellular EC50 (μM) SW620
Procedure, shortened: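 SW620 human colon cancer cells, some attached 24 h then serum-starved 48 h before dosing; compounds prepared in serum-supplemented medium. Cells incubated with compound 4 days at 37 °C, 5% CO2, and viability measured by CellTiter-Glo luminescence.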

[2] = target: T1, Human DYRK1B (Homo sapiens, UniProt Q9Y463); assay: DYRK1B Kinase TR-FRET (IMAP-Tb) Assay; format: biochemical; conditions: TR-FRET (IMAP-Tb); ATP 70 μM; 37° C. 60 minutes; read-out: Enzyme IC50 (μM) DYRK1B
T1 construct: purchased Invitrogen PR8350B (former PV4649)

[3] = target: T2, Human DYRK1A (Homo sapiens, UniProt Q13627); assay: DYRK1A Kinase TR-FRET (IMAP-Tb) Assay; format: biochemical; conditions: TR-FRET (IMAP-Tb); ATP 70 μM; 37° C. 60 minutes; read-out: Enzyme IC50 (μM) DYRK1A
T2 construct: purchased Invitrogen PV3997
Procedure, shortened: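 Recombinant human DYRK1A phosphorylated fluorescent substrate peptide (1.0 μM) with ATP in 10 mM HEPES pH 7.0, 50 mM NaCl, 5 mM MgCl2, 1 mM DTT, 1 mM NaVO4, 0.02% BSA for 60 min at 37 °C. Phosphopeptide detected by IMAP terbium TR-FRET; IC50 reported.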

T1 sequence (Q9Y463 whole entry): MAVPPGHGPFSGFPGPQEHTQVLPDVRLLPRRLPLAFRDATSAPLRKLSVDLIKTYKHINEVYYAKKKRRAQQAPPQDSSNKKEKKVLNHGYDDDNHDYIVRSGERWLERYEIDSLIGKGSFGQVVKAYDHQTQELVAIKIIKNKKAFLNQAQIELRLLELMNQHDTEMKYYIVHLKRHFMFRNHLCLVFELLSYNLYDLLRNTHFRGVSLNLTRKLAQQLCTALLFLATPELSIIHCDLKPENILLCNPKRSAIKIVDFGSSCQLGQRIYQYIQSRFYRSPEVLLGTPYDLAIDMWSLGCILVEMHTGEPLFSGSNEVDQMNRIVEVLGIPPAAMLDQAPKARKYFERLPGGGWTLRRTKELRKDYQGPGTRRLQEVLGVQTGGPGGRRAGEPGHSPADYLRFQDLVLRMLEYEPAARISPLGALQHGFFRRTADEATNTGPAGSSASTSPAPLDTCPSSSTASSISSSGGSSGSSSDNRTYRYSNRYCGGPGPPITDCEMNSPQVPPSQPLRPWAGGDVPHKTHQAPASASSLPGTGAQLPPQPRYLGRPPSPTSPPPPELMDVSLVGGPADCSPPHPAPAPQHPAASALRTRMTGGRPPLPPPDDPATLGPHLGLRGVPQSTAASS

Row | Compound | EC50 [1] | IC50 [2] | IC50 [3]
1 | NCCC(NC(=O)c1ccc(Cl)c(NC(=O)c2cc3cncnc3[nH]c2=O)c1)c1ccccc1 (stereo not drawn) [Example 152, N-(5-(3-Amino-1-phenylpropylcarbamoyl)-2-chlorophenyl)-7-oxo-7,8-dihydropyrido[2,3-d]pyrimidine-6-carboxamide hydrochloride] | 2.68 µM | 0.033 µM | 0.066 µM
2 | O=C(NCc1cccc(Cl)c1)c1ccc(Cl)c(NC(=O)c2cc3cnc(NCC(O)CO)nc3[nH]c2=O)c1 (stereo not drawn) [Example 126, N-(2-Chloro-5-(3-chlorobenzylcarbamoyl)phenyl)-2-(2,3-dihydroxypropylamino)-7-oxo-7,8-dihydropyrido[2,3-d]pyrimidine-6-carboxamide] | > 10 µM | 0.059 µM | 0.0197 µM
3 | CSc1ncc2cc(C(=O)Nc3cc(C(=O)NC(CO)c4ccccc4)ccc3Cl)c(=O)[nH]c2n1 (stereo not drawn) [Example 140, N-(2-Chloro-5-(2-hydroxy-1-phenylethylcarbamoyl)phenyl)-2-(methylthio)-7-oxo-7,8-dihydropyrido[2,3-d]pyrimidine-6-carboxamide] | 3.07 µM | 0.17 µM | 0.073 µM
4 | CN1CCC(CCNc2ncc3cc(C(=O)Nc4cc(C(=O)NCc5cccc(Cl)c5)ccc4Cl)c(=O)[nH]c3n2)CC1 [Example 104, N-(2-chloro-5-(3-chlorobenzylcarbamoyl)phenyl)-2-(2-(1-methylpiperidin-4-yl)ethylamino)-7-oxo-7,8-dihydropyrido[2,3-d]pyrimidine-6-carboxamide] | 0.0787 µM | 0.0613 µM | 0.0226 µM
5 | NCCC(NC(=O)c1cc(NC(=O)c2cc3cnc(N4CCOCC4)nc3[nH]c2=O)c(Cl)cc1F)c1cccc(Cl)c1 (stereo not drawn) [Example 160, 2-Morpholin-4-yl-7-oxo-7,8-dihydro-pyrido[2,3-d]pyrimidine-6-carboxylic acid {5-[3-amino-1-(3-chloro-phenyl)-propylcarbamoyl]-2-chloro-4-fluoro-phenyl}-amide] | 0.219 µM | 0.0932 µM | 0.0532 µM
6 | COc1ncc2cc(C(=O)Nc3cc(C(=O)NCC[C@@H](N)c4ccccc4)ccc3Cl)c(=O)[nH]c2n1 [Example 184, (R)—N-(5-(3-Amino-3-phenylpropylcarbamoyl)-2-chlorophenyl)-2-methoxy-7-oxo-7,8-dihydropyrido[2,3-d]pyrimidine-6-carboxamide] | 5.09 µM | 0.691 µM | 0.331 µM
7 | CN1CCN(c2ncc3cc(C(=O)Nc4cc(C(=O)NCc5ccccc5)ccc4Cl)c(=O)[nH]c3n2)CC1 [Example 172, 2-(4-Methyl-piperazin-1-yl)-7-oxo-7,8-dihydro-pyrido[2,3-d]pyrimidine-6-carboxylic acid (5-benzylcarbamoyl-2-chloro-phenyl)-amide] | 0.49 µM | 0.208 µM | 0.109 µM
